Values of other authors as cited in US20240182421A1, “SYNTHESIS OF ENDOCHIN-LIKE QUINOLONES” (Oregon Health & Science University, priority 2021, published 2024).
“Also recorded” adds a separate entry of the source.

Columns and labels:
[1] = test system: avian malaria; conditions: in vivo
[2] = test system: apicomplexan parasites of importance to veterinary medicine
[3] = test system: Babesia microti
[4] = test system: Toxoplasma gondii
[5] = test system: malaria; conditions: compared with ELQ-300

CCCCCCCc1c(C)[nH]c2cc(OC)ccc2c1=O [endochin]
activity in the avian malaria model [1]: high activity

COc1cc2[nH]c(C)c(-c3ccc(Oc4ccc(OC(F)(F)F)cc4)cc3)c(=O)c2cc1Cl [ELQ-300, 6-Chloro-7-methoxy-2-methyl-3-(4-(4-(trifluoromethoxy)phenoxy)phenyl)quinolin-4(1H)-one]
activity against a range of apicomplexan parasites of importance to veterinary medicine [2]: active

COc1cc2[nH]c(C)c(-c3ccc(Oc4ccc(OC(F)(F)F)cc4)cc3)c(=O)c2cc1F [ELQ-316, 6-Fluoro-7-methoxy-2-methyl-3-(4-(4-(trifluoromethoxy)phenoxy)phenyl)quinolin-4(1H)-one]
antiparasitic activity / potency against Babesia microti [3]: greatest potency; also recorded: superior antiparasitic activity | antiparasitic activity / potency against Toxoplasma gondii [4]: greatest potency; also recorded: superior antiparasitic activity | activity against a range of apicomplexan parasites of importance to veterinary medicine [2]: active | antimalarial activity in vivo [5]: slightly less antimalarial activity than ELQ-300
